Source: PubChem BioAssay (NCI)
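GI50: concentration for 50% inhibition of growth. TGI marks complete inhibition of growth.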

How the values were obtained:
Experiment in all cases: inhibition of tumour cell growth, NCI panel, 384-well format
[1] = test system: KM12 colon
[2] = test system: SF-268 CNS
[3] = test system: SF-295 CNS
[4] = test system: MDA-MB-468 breast
[5] = test system: U251 glioblastoma
[6] = test system: NCI-H226 lung
[7] = test system: HL-60(TB) leukemia
[8] = test system: HCC-2998 colon
[9] = test system: HOP-62 NSCLC
[10] = test system: SR leukemia
[11] = test system: T-47D breast
[12] = test system: OVCAR-5 ovarian
[13] = test system: HCT-116 colon
[14] = test system: CAKI-1 renal
[15] = test system: TK-10 renal
[16] = test system: A498 renal
[17] = test system: M14 melanoma
[18] = test system: HCT-15 colon
[19] = test system: 786-0 renal
[20] = test system: IGROV1 ovarian
[21] = test system: MDA-MB-231 breast
[22] = test system: OVCAR-8 ovarian
[23] = test system: BT-549 breast
[24] = test system: MCF7 breast
[25] = test system: CCRF-CEM leukemia
[26] = test system: MDA-MB-435 melanoma
[27] = test system: UO-31 renal
[28] = test system: MOLT-4 leukemia
[29] = test system: HOP-92 NSCLC
[30] = test system: NCI/ADR-RES ovarian
[31] = test system: RXF 393 renal
[32] = test system: A549 NSCLC
[33] = test system: ACHN renal
[34] = test system: SF-539 CNS
[35] = test system: OVCAR-3 ovarian
[36] = test system: NCI-H322M lung
[37] = test system: PC-3 prostate
[38] = test system: MALME-3M melanoma
[39] = test system: SW-620 colon
[40] = test system: SK-MEL-5 melanoma
[41] = test system: HS 578T breast
[42] = test system: NCI-H522 lung
[43] = test system: EKVX NSCLC
[44] = test system: DU-145 prostate
[45] = test system: OVCAR-4 ovarian
[46] = test system: K-562 leukemia
[47] = test system: SK-MEL-2 melanoma
[48] = test system: SNB-19 CNS
[49] = test system: SNB-75 CNS
[50] = test system: SK-OV-3 ovarian
[51] = test system: RPMI-8226 leukemia
[52] = test system: UACC-62 melanoma
[53] = test system: LOX IMVI melanoma
[54] = test system: NCI-H460 NSCLC

## Cc1cnc(NC2CCOCC2)nc1-n1cnc(C(=O)N[C@H](CN)c2cc(F)cc(Cl)c2)c1
[1]
  GI50: 29.5 nM
  TGI: 17500 nM
[2]
  GI50: 6610 nM
  TGI: 20400 nM
[3]
  GI50: 3580 nM
  TGI: 16300 nM
[4]
  GI50: 351 nM
  TGI: 2320 nM
[5]
  GI50: 75.6 nM
  TGI: 10500 nM
[6]
  GI50: 63 nM
  TGI: 38300 nM
[7]
  GI50: 17.2 nM
  TGI: 1240 nM
[8]
  GI50: < 10 nM
  TGI: 12.3 nM
[9]
  GI50: 1260 nM
  TGI: 17300 nM
[10]
  GI50: 2540 nM
  TGI: 11000 nM
[11]
  GI50: 15600 nM
  TGI: 30300 nM
[12]
  GI50: < 10 nM
  TGI: 46900 nM
[13]
  GI50: < 10 nM
  TGI: 34.8 nM
[14]
  GI50: 70.5 nM
  TGI: 11500 nM
[15]
  GI50: 91.9 nM
  TGI: 3700 nM
[16]
  GI50: 405 nM
  TGI: 12100 nM
[17]
  GI50: < 10 nM
  TGI: 40.8 nM
[18]
  GI50: 2780 nM
  TGI: 20800 nM
[19]
  GI50: 2200 nM
  TGI: 16300 nM
[20]
  GI50: 40.3 nM
  TGI: 7920 nM
[21]
  GI50: 37.4 nM
  TGI: 21500 nM
[22]
  GI50: 4350 nM
  TGI: 19700 nM
[23]
  GI50: 2210 nM
  TGI: 13000 nM
[24]
  GI50: 1090 nM
  TGI: 13200 nM
[25]
  GI50: 1470 nM
  TGI: 3190 nM
[26]
  GI50: 18.1 nM
  TGI: 17900 nM
[27]
  GI50: 577 nM
  TGI: 10600 nM
[28]
  GI50: 1260 nM
  TGI: 2540 nM
[29]
  GI50: 23.8 nM
  TGI: 81.4 nM
[30]
  GI50: 25700 nM
  TGI: > 100000 nM
[31]
  GI50: 1590 nM
  TGI: 15000 nM
[32]
  GI50: 42.3 nM
  TGI: 18500 nM
[33]
  GI50: 1270 nM
  TGI: 18000 nM
[34]
  GI50: 2050 nM
  TGI: 12400 nM
[35]
  GI50: 1050 nM
  TGI: 16800 nM
[36]
  GI50: 21.5 nM
  TGI: 23900 nM
[37]
  GI50: 6100 nM
  TGI: 20200 nM
[38]
  GI50: < 10 nM
[39]
  GI50: 22.5 nM
  TGI: 10500 nM
[40]
  GI50: 17.3 nM
  TGI: 4580 nM
[41]
  GI50: 509 nM
  TGI: 21100 nM
[42]
  GI50: 52.4 nM
  TGI: 16900 nM
[43]
  GI50: 524 nM
  TGI: 14400 nM
[44]
  GI50: 768 nM
  TGI: 25500 nM
[45]
  GI50: 21100 nM
  TGI: 48500 nM
[46]
  GI50: 198 nM
  TGI: 2520 nM
[47]
  GI50: < 10 nM
  TGI: 23.5 nM
[48]
  GI50: 3680 nM
  TGI: 21500 nM
[49]
  GI50: 11400 nM
  TGI: 23600 nM
[50]
  GI50: 807 nM
  TGI: 15400 nM
[51]
  GI50: 2550 nM
  TGI: 14500 nM
[52]
  GI50: < 10 nM
  TGI: 41.2 nM
[53]
  GI50: < 10 nM
  TGI: 25.8 nM
[54]
  GI50: 98.5 nM
  TGI: 13600 nM
